# Source: patent publication US8445501B2, “Substituted 7-carboxamido-pyrrolo[3,2-d]pyrimidines” (Takeda GmbH, priority 2008, dated 2013)
# Biological target: T1, human PDE5 (Homo sapiens, UniProt O76074)
# T1 construct: from tissue; host or cells: platelets from fresh blood of human donors (lysate, 10,000 g supernatant)
# Experiment: Inhibition of the type 5 phosphodiesterase (PDE5) activity, modified SPA test with platelet lysate
# Assay type: biochemical
# Conditions: PDE5 from human platelet lysate, 0.5 μM cGMP
# Outline: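 Human platelet lysate (10,000 g supernatant) as PDE5 source in SPA with 0.5 μM cGMP plus [3H]cGMP tracer, pH 7.4, 5 mM Mg2+, 1 μM motapizone and 10 nM PDE2 inhibitor; 10–20% conversion. 5 min preincubation, 15 min at 37 °C, stopped with SPA beads/IBMX. IC50 by non-linear regression.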
row,IC50 [nM],Compound
1,2.24,"CCC(=O)N1CCC[C@H](NC(=O)c2c[nH]c3c(-c4cc(F)c(OC)cc4OCC4CC4)ncnc23)C1 [Example 114, 4-(2-Cyclopropylmethoxy-5-fluoro-4-methoxy-phenyl)-5H-pyrrolo[3,2-d]pyrimidine-7-carboxylic acid ((S)-1-propionyl-piperidin-3-yl)-amide]"
2,3.8,"COCC(=O)N1CCC[C@H](NC(=O)c2c[nH]c3c(-c4cc(F)c(OC)cc4OCC4CC4)ncnc23)C1 [Example 115, 4-(2-Cyclopropylmethoxy-5-fluoro-4-methoxy-phenyl)-5H-pyrrolo[3,2-d]pyrimidine-7-carboxylic acid [(S)-1-(2-methoxy-ethanoyl)-piperidin-3-yl]amide]"
3,3.09,"COc1cc(OCC2CC2)c(-c2ncnc3c(C(=O)N[C@H]4CCCN(C(C)=O)C4)c[nH]c23)cc1F [Example 116, 4-(2-Cyclopropylmethoxy-5-fluoro-4-methoxy-phenyl)-5H-pyrrolo[3,2-d]pyrimidine-7-carboxylic acid ((S)-1-acetyl-piperidin-3-yl)-amide]"
4,1.1,"COc1cc(OCC2CC2)c(-c2ncnc3c(C(=O)N[C@@H]4CCN(C(C)=O)C4)c[nH]c23)cc1F [Example 117, 4-(2-Cyclopropylmethoxy-5-fluoro-4-methoxy-phenyl)-5H-pyrrolo[3,2-d]pyrimidine-7-carboxylic acid ((R)-1-acetyl-pyrrolidin-3-yl)-amide]"
5,0.501,"CCC(=O)N1CC[C@@H](NC(=O)c2c[nH]c3c(-c4cc(F)c(OC)cc4OCC4CC4)ncnc23)C1 [Example 118, 4-(2-Cyclopropylmethoxy-5-fluoro-4-methoxy-phenyl)-5H-pyrrolo[3,2-d]pyrimidine-7-carboxylic acid ((R)-1-propionyl-pyrrolidin-3-yl)-amide]"
6,1.2,"COCC(=O)N1CC[C@@H](NC(=O)c2c[nH]c3c(-c4cc(F)c(OC)cc4OCC4CC4)ncnc23)C1 [Example 119, 4-(2-Cyclopropylmethoxy-5-fluoro-4-methoxy-phenyl)-5H-pyrrolo[3,2-d]pyrimidine-7-carboxylic acid [(R)-1-(2-methoxy-acetyl)-pyrrolidin-3-yl]amide]"
7,1.2,"CC(=O)N[C@H]1CC[C@H](NC(=O)c2c[nH]c3c(-c4cc(C)ccc4OCC4CC4)ncnc23)CC1 [Example 120, trans-4-(2-Cyclopropylmethoxy-5-methyl-phenyl)-5H-pyrrolo[3,2-d]pyrimidine-7-carboxylic acid (4-acetylamino-cyclohexyl)-amide]"
8,1.78,"COCC(=O)N[C@H]1CC[C@H](NC(=O)c2c[nH]c3c(-c4cc(C)ccc4OCC4CC4)ncnc23)CC1 [Example 121, trans-4-(2-Cyclopropylmethoxy-5-methyl-phenyl)-5H-pyrrolo[3,2-d]pyrimidine-7-carboxylic acid [4-(2-methoxy-acetylamino)-cyclohexyl]-amide]"
9,1.38,"CCOC(=O)N[C@H]1CC[C@H](NC(=O)c2c[nH]c3c(-c4cc(C)ccc4OCC4CC4)ncnc23)CC1 [Example 122, trans-(4-{[4-(2-Cyclopropylmethoxy-5-methyl-phenyl)-5H-pyrrolo[3,2-d]pyrimidine-7-carbonyl]-amino}-cyclohexyl)-carbamic acid ethyl ester]"
10,1.82,"CC(=O)N1CCC(NC(=O)c2c[nH]c3c(-c4cc(C)ccc4OCC4CC4)ncnc23)CC1 [Example 123, 4-(2-Cyclopropylmethoxy-5-methyl-phenyl)-5H-pyrrolo[3,2-d]pyrimidine-7-carboxylic acid (1-acetyl-piperidin-4-yl)-amide]"
11,2.19,"COCC(=O)N1CCC(NC(=O)c2c[nH]c3c(-c4cc(C)ccc4OCC4CC4)ncnc23)CC1 [Example 124, 4-(2-Cyclopropylmethoxy-5-methyl-phenyl)-5H-pyrrolo[3,2-d]pyrimidine-7-carboxylic acid [1-(2-methoxy-acetyl)piperidin-4-yl]-amide]"
12,1.17,"CCOC(=O)N1CCC(NC(=O)c2c[nH]c3c(-c4cc(C)ccc4OCC4CC4)ncnc23)CC1 [Example 125, 4-{[4-(2-Cyclopropylmethoxy-5-methyl-phenyl)-5H-pyrrolo[3,2-d]pyrimidine-7-carbonyl]-amino}-piperidine-1-carboxylic acid ethyl ester]"
13,0.468,"CC(=O)N[C@H]1CC[C@H](NC(=O)c2c[nH]c3c(-c4c(OCC5CCC5)ccc5c4OCO5)ncnc23)CC1 [Example 126, trans-4-(5-Cyclobutylmethoxy-benzo[1,3]dioxol-4-yl)-5H-pyrrolo[3,2-d]pyrimidine-7-carboxylic acid (4-acetylamino-cyclohexyl)-amide]"

# Second part, the molecule before the results:
row,Compound,IC50 [nM]
1,"COCC(=O)N1CCC(NC(=O)c2c[nH]c3c(-c4cc(OC)c(F)cc4OCC4CC4)ncnc23)CC1 [Example 98, 4-(2-Cyclopropylmethoxy-4-fluoro-5-methoxy-phenyl)-5H-pyrrolo[3,2-d]pyrimidine-7-carboxylic acid [1-(2-methoxy-ethanoyl)-piperidin-4-yl]-amide]",0.219
2,"COc1cc(-c2ncnc3c(C(=O)NC4CCN(C(C)=O)CC4)c[nH]c23)c(OCC2CC2)cc1F [Example 99, 4-(2-Cyclopropylmethoxy-4-fluoro-5-methoxy-phenyl)-5H-pyrrolo[3,2-d]pyrimidine-7-carboxylic acid (1-acetyl-piperidin-4-yl)-amide]",0.178
3,"COc1cc(-c2ncnc3c(C(=O)N[C@@H]4CCCN(C(C)=O)C4)c[nH]c23)c(OCC2CC2)cc1F [Example 100, 4-(2-Cyclopropylmethoxy-4-fluoro-5-methoxy-phenyl)-5H-pyrrolo[3,2-d]pyrimidine-7-carboxylic acid ((R)-1-acetyl-piperidin-3-yl)-amide]",0.126
4,"CCC(=O)N1CCC[C@@H](NC(=O)c2c[nH]c3c(-c4cc(OC)c(F)cc4OCC4CC4)ncnc23)C1 [Example 101, 4-(2-Cyclopropylmethoxy-4-fluoro-5-methoxy-phenyl)-5H-pyrrolo[3,2-d]pyrimidine-7-carboxylic acid ((R)-1-propionyl-piperidin-3-yl)-amide]",0.162
5,"COCC(=O)N1CCC[C@@H](NC(=O)c2c[nH]c3c(-c4cc(OC)c(F)cc4OCC4CC4)ncnc23)C1 [Example 102, 4-(2-Cyclopropylmethoxy-4-fluoro-5-methoxy-phenyl)-5H-pyrrolo[3,2-d]pyrimidine-7-carboxylic acid [(R)-1-(2-methoxy-acetyl)piperidin-3-yl]-amide]",0.115
6,"CCC(=O)N1CC[C@@H](NC(=O)c2c[nH]c3c(-c4cc(OC)c(F)cc4OCC4CC4)ncnc23)C1 [Example 104, 4-(2-Cyclopropylmethoxy-4-fluoro-5-methoxy-phenyl)-5H-pyrrolo[3,2-d]pyrimidine-7-carboxylic acid ((R)-1-propionyl-pyrrolidin-3-yl)-amide]",0.234
7,"COCC(=O)N1CC[C@@H](NC(=O)c2c[nH]c3c(-c4cc(OC)c(F)cc4OCC4CC4)ncnc23)C1 [Example 105, 4-(2-Cyclopropylmethoxy-4-fluoro-5-methoxy-phenyl)-5H-pyrrolo[3,2-d]pyrimidine-7-carboxylic acid [(R)-1-(2-methoxy-acetyl)-pyrrolidin-3-yl]amide]",0.372
8,"COc1cc(OCC2CC2)c(-c2ncnc3c(C(=O)N[C@H]4CC[C@H](NC(C)=O)CC4)c[nH]c23)cc1F [Example 106, trans-4-(2-Cyclopropylmethoxy-5-fluoro-4-methoxy-phenyl)-5H-pyrrolo[3,2-d]pyrimidine-7-carboxylic acid (4-acetylamino-cyclohexyl)-amide]",0.891
9,"COCC(=O)N[C@H]1CC[C@H](NC(=O)c2c[nH]c3c(-c4cc(F)c(OC)cc4OCC4CC4)ncnc23)CC1 [Example 107, trans-4-(2-Cyclopropylmethoxy-5-fluoro-4-methoxy-phenyl)-5H-pyrrolo[3,2-d]pyrimidine-7-carboxylic acid [4-(2-methoxy-acetylamino)-cyclohexyl]-amide]",0.537
10,"COc1cc(OCC2CC2)c(-c2ncnc3c(C(=O)NC4CCN(C(C)=O)CC4)c[nH]c23)cc1F [Example 108, 4-(2-Cyclopropylmethoxy-5-fluoro-4-methoxy-phenyl)-5H-pyrrolo[3,2-d]pyrimidine-7-carboxylic acid (1-acetyl-piperidin-4-yl)-amide]",0.661
11,"COCC(=O)N1CCC(NC(=O)c2c[nH]c3c(-c4cc(F)c(OC)cc4OCC4CC4)ncnc23)CC1 [Example 109, 4-(2-Cyclopropylmethoxy-5-fluoro-4-methoxy-phenyl)-5H-pyrrolo[3,2-d]pyrimidine-7-carboxylic acid [1-(2-methoxy-ethanoyl)-piperidin-4-yl]amide]",0.692
12,"CCC(=O)N1CCC(NC(=O)c2c[nH]c3c(-c4cc(F)c(OC)cc4OCC4CC4)ncnc23)CC1 [Example 110, 4-(2-Cyclopropylmethoxy-5-fluoro-4-methoxy-phenyl)-5H-pyrrolo[3,2-d]pyrimidine-7-carboxylic acid (1-propionyl-piperidin-4-yl)-amide]",0.214
13,"CCC(=O)N1CCC[C@@H](NC(=O)c2c[nH]c3c(-c4cc(F)c(OC)cc4OCC4CC4)ncnc23)C1 [Example 111, 4-(2-Cyclopropylmethoxy-5-fluoro-4-methoxy-phenyl)-5H-pyrrolo[3,2-d]pyrimidine-7-carboxylic acid ((R)-1-propionyl-piperidin-3-yl)-amide]",0.105
14,"COCC(=O)N1CCC[C@@H](NC(=O)c2c[nH]c3c(-c4cc(F)c(OC)cc4OCC4CC4)ncnc23)C1 [Example 112, 4-(2-Cyclopropylmethoxy-5-fluoro-4-methoxy-phenyl)-5H-pyrrolo[3,2-d]pyrimidine-7-carboxylic acid [(R)-1-(2-methoxy-ethanoyl)-piperidin-3-yl]amide]",0.138
15,"COc1cc(OCC2CC2)c(-c2ncnc3c(C(=O)N[C@@H]4CCCN(C(C)=O)C4)c[nH]c23)cc1F [Example 113, 4-(2-Cyclopropylmethoxy-5-fluoro-4-methoxy-phenyl)-5H-pyrrolo[3,2-d]pyrimidine-7-carboxylic acid ((R)-1-acetyl-piperidin-3-yl)-amide]",0.2
